The source of these data is publication PMC10507085, “Pharmacological inhibition of TBK1/IKKε blunts immunopathology in a murine model of SARS-CoV-2 infection” (Nature Communications, 2023).

Among the targets are AURKB (Homo sapiens, UniProt Q96GD4); BMX (Homo sapiens, UniProt P51813); CAMK1D (Homo sapiens, UniProt Q8IU85); CSNK1D (Homo sapiens, UniProt P48730); ERBB4 (Homo sapiens, UniProt Q15303); GRK1 (Homo sapiens, UniProt Q15835); MAPK7 (Homo sapiens, UniProt Q13164); MINK1 (Homo sapiens, UniProt Q8N4C8); NEK10 (Homo sapiens, UniProt Q6ZWH5); NTRK1 (Homo sapiens, UniProt P04629); PAK4 (Homo sapiens, UniProt O96013); PIP4K2B (Homo sapiens, UniProt P78356); PLK4 (Homo sapiens, UniProt O00444); PRKG1 (Homo sapiens, UniProt Q13976); PRKG2 (Homo sapiens, UniProt Q13237); PTK2 (Homo sapiens, UniProt Q05397); SRPK1 (Homo sapiens, UniProt Q96SB4); SRPK2 (Homo sapiens, UniProt P78362); STK16 (Homo sapiens, UniProt O75716); STK39 (Homo sapiens, UniProt Q9UEW8).

Assay in all cases: biochemical
Common to all, as to parameters: KINOMEscan competition binding, DNA-tagged kinase against immobilised ligand, qPCR read-out
What all share (settings): read-out: Percent Control
A general note: Real-time PCR tracks product formation cycle by cycle.

PLK4, sequence (O00444 whole entry): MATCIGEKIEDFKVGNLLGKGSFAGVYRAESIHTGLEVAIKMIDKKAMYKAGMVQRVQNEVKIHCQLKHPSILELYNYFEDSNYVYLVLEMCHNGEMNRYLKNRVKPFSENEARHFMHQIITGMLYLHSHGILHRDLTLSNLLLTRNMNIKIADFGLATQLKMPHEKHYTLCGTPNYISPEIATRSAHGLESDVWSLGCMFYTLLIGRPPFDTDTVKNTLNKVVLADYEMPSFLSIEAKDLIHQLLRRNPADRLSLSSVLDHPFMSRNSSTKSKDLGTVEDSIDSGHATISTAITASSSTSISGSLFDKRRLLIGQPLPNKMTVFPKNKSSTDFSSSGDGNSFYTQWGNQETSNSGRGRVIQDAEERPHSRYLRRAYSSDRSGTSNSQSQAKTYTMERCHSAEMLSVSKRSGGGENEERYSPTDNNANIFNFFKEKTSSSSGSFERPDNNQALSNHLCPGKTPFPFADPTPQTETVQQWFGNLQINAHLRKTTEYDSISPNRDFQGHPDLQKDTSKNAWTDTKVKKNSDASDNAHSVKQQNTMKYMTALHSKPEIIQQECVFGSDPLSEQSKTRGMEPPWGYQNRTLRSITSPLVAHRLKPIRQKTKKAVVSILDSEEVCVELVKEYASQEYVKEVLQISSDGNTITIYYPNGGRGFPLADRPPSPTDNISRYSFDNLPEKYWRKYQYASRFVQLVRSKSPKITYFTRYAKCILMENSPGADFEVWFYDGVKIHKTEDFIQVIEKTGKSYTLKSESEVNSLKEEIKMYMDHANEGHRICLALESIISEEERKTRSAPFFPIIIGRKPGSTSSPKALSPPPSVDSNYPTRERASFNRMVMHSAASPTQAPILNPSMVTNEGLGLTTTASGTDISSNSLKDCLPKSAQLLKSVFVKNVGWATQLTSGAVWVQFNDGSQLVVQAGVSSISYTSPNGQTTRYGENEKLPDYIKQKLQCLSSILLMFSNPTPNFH
MINK1, sequence (Q8N4C8 whole entry): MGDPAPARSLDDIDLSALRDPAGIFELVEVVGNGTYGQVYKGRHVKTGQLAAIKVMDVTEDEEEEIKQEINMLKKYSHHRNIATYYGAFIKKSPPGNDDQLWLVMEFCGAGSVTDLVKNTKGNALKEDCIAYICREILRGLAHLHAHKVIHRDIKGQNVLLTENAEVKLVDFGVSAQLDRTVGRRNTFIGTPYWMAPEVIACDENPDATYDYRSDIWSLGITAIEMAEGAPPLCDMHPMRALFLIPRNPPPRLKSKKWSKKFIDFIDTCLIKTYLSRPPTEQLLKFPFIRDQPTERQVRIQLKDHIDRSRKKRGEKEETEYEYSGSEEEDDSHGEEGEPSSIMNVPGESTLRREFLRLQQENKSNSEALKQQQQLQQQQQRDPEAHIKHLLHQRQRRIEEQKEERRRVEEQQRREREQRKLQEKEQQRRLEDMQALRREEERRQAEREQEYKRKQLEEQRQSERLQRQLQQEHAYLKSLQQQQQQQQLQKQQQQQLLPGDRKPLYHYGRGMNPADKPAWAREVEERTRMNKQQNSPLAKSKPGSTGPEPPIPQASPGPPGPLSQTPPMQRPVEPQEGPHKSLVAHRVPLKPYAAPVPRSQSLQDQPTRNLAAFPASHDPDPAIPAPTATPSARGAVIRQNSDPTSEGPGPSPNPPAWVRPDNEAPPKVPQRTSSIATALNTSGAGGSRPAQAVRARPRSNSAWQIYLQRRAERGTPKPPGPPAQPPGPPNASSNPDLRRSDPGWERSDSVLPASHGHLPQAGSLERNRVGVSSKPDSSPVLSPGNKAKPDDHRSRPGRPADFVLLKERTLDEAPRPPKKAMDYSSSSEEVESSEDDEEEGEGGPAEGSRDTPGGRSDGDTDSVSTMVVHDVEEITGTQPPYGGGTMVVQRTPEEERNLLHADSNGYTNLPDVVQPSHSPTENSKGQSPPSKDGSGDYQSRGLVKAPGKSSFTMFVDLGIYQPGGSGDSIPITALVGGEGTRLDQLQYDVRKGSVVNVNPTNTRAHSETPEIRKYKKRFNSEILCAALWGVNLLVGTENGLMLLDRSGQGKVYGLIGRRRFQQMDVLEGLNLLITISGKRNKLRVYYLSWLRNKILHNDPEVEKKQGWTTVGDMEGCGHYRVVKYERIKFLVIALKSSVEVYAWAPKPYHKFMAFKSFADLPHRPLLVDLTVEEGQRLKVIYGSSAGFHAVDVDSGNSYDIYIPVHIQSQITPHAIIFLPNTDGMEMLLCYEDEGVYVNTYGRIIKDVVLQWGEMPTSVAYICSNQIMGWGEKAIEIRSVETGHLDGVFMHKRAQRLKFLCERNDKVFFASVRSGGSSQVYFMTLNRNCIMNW
PAK4, sequence (O96013 whole entry): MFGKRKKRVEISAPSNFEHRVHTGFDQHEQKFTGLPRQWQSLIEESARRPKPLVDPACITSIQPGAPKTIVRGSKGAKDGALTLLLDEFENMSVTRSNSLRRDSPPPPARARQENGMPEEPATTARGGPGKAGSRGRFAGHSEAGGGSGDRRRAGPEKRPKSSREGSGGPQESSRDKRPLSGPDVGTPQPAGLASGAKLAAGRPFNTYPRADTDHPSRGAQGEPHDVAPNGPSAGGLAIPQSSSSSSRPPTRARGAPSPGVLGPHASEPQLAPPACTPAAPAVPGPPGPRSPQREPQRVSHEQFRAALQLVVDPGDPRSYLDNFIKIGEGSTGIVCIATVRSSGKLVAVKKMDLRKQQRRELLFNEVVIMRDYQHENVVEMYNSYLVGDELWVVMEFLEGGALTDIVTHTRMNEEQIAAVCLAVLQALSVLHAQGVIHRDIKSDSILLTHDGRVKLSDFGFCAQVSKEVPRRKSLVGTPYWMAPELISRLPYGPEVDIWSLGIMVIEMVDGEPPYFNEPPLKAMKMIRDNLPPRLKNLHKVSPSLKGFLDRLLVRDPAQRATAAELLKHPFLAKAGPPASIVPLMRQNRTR
SRPK2, sequence (P78362 whole entry): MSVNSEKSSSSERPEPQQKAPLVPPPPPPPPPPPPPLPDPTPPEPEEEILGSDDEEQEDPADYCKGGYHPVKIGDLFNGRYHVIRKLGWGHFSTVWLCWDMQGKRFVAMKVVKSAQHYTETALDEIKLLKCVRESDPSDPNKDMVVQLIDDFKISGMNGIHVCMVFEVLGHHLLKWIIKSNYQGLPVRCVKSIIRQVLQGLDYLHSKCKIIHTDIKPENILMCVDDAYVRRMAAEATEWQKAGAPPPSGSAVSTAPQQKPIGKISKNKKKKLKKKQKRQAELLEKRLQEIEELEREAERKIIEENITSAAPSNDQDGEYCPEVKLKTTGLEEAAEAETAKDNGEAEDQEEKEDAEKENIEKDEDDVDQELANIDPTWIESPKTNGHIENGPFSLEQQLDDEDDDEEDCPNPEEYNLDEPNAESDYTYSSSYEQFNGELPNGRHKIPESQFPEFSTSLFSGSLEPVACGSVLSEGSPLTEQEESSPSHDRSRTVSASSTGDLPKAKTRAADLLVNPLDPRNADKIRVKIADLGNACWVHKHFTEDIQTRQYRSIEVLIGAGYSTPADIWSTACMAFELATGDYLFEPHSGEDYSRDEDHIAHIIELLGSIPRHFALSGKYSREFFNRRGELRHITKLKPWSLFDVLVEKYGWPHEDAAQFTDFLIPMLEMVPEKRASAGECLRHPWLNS
PTK2, sequence (Q05397 whole entry): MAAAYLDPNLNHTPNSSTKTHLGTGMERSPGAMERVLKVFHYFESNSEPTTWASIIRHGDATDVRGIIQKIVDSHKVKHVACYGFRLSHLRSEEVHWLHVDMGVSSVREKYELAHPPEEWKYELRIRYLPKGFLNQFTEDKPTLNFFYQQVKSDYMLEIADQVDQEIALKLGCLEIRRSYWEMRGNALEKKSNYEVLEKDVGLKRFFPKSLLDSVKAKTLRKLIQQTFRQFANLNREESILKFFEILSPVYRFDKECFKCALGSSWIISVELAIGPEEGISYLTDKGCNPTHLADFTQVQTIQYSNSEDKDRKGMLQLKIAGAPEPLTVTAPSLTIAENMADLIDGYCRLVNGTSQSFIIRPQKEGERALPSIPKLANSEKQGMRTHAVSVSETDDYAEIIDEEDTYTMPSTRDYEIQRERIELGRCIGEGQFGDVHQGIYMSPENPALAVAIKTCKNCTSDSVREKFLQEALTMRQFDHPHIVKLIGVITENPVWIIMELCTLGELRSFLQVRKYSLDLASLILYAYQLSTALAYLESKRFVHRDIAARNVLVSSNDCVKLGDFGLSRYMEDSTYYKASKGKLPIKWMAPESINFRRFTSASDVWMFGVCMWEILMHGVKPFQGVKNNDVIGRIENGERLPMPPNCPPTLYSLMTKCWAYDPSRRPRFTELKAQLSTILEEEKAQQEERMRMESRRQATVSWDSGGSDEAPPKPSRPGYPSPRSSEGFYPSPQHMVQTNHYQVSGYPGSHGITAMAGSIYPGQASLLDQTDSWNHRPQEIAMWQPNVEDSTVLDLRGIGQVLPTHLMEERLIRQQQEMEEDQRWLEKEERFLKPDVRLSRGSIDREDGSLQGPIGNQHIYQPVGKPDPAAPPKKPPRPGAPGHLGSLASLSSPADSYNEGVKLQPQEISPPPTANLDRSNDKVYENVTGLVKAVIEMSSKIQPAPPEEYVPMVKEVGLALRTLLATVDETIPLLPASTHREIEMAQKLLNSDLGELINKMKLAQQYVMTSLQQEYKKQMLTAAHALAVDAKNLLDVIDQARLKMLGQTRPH
PIP4K2B, sequence (P78356 whole entry): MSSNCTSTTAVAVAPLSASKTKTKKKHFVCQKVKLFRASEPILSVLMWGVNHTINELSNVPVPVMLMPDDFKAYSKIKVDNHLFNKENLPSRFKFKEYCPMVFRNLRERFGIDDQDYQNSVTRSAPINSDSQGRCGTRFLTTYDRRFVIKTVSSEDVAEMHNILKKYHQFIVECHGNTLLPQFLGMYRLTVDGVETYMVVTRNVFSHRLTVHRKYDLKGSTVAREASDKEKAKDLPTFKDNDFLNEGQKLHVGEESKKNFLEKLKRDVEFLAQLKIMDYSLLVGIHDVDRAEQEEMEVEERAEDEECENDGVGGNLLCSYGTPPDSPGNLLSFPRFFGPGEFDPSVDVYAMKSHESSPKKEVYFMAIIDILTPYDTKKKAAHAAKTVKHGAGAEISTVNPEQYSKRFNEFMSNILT

For the compound `Oc1ccc(C2=Cc3ccc(O)cc3OC2)cc1` [compound 1, idronoxil], the remaining binding at 10 µM at AURKB is 12%; on BMX, 75%; on CAMK1D it was 100%; on CSNK1D, 58%; at ERBB4, 91%; at GRK1, 100%. Further, the remaining binding at 10 µM is 90% on MAPK7; 38% at MINK1; 69% on NEK10; 91% at NTRK1; 76% at PAK4; 100% on PIP4K2B. In addition, the remaining binding at 10 µM at PLK4 is 88%; on PRKG1, 74%; on PRKG2, 71%; at PTK2, 100%; on SRPK1 it was 100%; on SRPK2, 99%. For the same compound, the remaining binding at 10 µM came to 100% at STK16 and 71% at STK39.
